Experimental data published in patent US20060025482A1, “(-)-Hydroxycitric acid for the modulation of angiotensin-converting enzyme” (priority 2004, published 2006).

How the values were obtained:
[1] = Blood chemistries in Sprague-Dawley rats (Example 1); type: in vivo, rat; settings: SD rats; for average insulin concentrations compared to control: differences not significant using ANOVA, all dose groups
Source text: (§1) A know effect of ACE inhibitors is a reduction in elevated systolic blood pressure. To test this, the following protocol was employed: Sprague-Dawley Rats (SD), approximately 8 weeks of age werw obtained. Six groups of eight male SD received the same […] rat chow manufactured to specifications. The special diets derived 30% of calories from fats (one half from lard and one half from corn oil), 50% from carbohydrates, and 20% from proteins. Twenty percent of dietary calories was derived from sucrose and the preponderance of the remaining carbohydrate calories was derived from dextrin. During weekdays (M-F), each group was gavaged twice daily with a solution containing a commercial source of potassium hydroxycitrate (KHCA), a commercial source of potassium-calcium hydroxycitrate (KCaHCA), or a pre-commercial non-salt source of potassium-magnesium hydroxycitrate (KMgHCA, listed as KMgHCA L-Low, M-Intermediate or H-High depending upon the dose). Over the weekends (S-S), a similar quantity of the weekday daily dose was added to twenty grams of food, that is, an amount of food estimated to be close to the daily intake of the animals. At initiation of study and four weeks, and eight weeks later, bloods were drawn from all SD for routine blood chemistries. Body weight (BW) was measured weekly and systolic blood pressure (SBP) was measured every two weeks.
(§2) Statistical Analyses: Results are presented as mean±SEM. Many statistics were performed by one-way analysis of variance (ANOVA). SBP and BW were examined by two-way analyses of variance (one factor being dietary group and the second factor being time of examination). Where a significant effect of diet was detected by ANOVA (p<0.05), the Dunnett t test was used to establish which differences between means reached statistical significance (p<0.05). If a Student's t test was employed, this is noted.

[2] = tested on: Spontaneously hypertensive rats (SHR); assay: Systolic blood pressure of SHR on chow/table sugar diet (Example 2); type: in vivo, rat; settings: 100 mg HCA per day in food, control SBP steadily increased
Description: (§3) Systolic Blood Pressure (SBP): SBP was estimated by tail plethysmography in unanesthetized rats after a brief warming period. Readings were taken approximately one minute apart. To be accepted, SBP measurements had to be virtually stable for a minimum of three consecutive readings.
(§4) Spontaneously hypertensive rats (SHR) were placed on a diet composed of regular rat chow (60% w/w) and table sugar (40% w/w). This diet reliably elevates blood pressure in this animal model. One group received 100 mg HCA per day in the form of a new potassium-magnesium hydroxycitrate (different from that used in Example 1) via an added 5 g HCA per kg of food mix. Systolic blood pressure and body weight were tested as in Example 1 on a weekly basis.

[3] = Body weight of SHR on chow/table sugar diet (Example 2); type: in vivo, rat; settings: 100 mg HCA per day in food, p=0.084
Description: as §4

[4] = tested on: Spontaneously hypertensive rats (SHR); assay: Glucose tolerance test with 0.1 unit regular insulin injected along with glucose in SHR; type: in vivo, rat; settings: 100 mg HCA per day, at 7.5 minutes
Description: as §4
This was viewed as likely positive in that rats gain weight steadily as long as they remain in good health and the SHR at middle age, as used here, lives a relatively short life and its health deteriorates as its blood pressure rises. […] A glucose tolerance test was administered in which 0.1 unit of regular insulin was injected along with glucose. […] This finding indicates increased insulin sensitivity. (FIG. 6)

[5] = tested on: Sprague-Dawley Rats; assay: Systolic blood pressure by tail plethysmography in Sprague-Dawley rats on special diet (Example 1); type: in vivo, rat; settings: SD rats
Source text: as §1
The HCA dosages in the arms varied. The dosage used in the KHCA arm was extrapolated from the recommended 1,500 mg HCA per day for humans consuming a normal diet (i.e., ≧30% calories derived from fats) advocated by a commercial seller of KHCA and claimed to have produced acceptable clinical results. The approximate equivalent for the rat model is 35.4 mg HCA per day, which we increased to 38.4 mg HCA per day for convenience in employing a 48% HCA potassium salt and to remain safely on the high side in practice. For the sake of comparison, a commercial KCaHCA salt (60% HCA) was chosen and delivered at an HCA dosage level of 48 mg per day, which slightly exceeded the lowest dosage of HCA found to be efficacious for inhibition of weight gain in rats in the early pharmaceutical trials (45.4 mg/day) using pure trisodium hydroxycitrate and a very low fat diet. The design thus utilized a realistic diet with rough equivalents of the HCA dosages claimed to be effective in both the human and rat models.
The experimental KMgHCA dosings varied considerably from that of the other two salts. […] As a result, the recalculated HCA doses for the experimental compound were a low dose (KMgHCA L) of 14 mg, an intermediate dose (KMgHCA M) of 28 mg and a high dose (KMgHCA H) of 84 mg per day. The difficulty in calculating the HCA content in this case is not unique inasmuch as there is as of yet no universally accepted method for calculating the HCA content of the various salts. Again, preparations yielded the equivalent of 48 mg HCA per day from KCaHCA and 38.4 mg HCA per day from KHCA.
as §3, §2

[6] = tested on: Spontaneously hypertensive rats (SHR); assay: Losartan challenge: SBP response in SHR; type: in vivo, rat
Source text: Many factors can positively influence blood pressure, e.g., diuretics, antioxidants, regulators of sympathetic/parasympathetic tone, compounds that improve insulin sensitivity and so forth. Therefore, losartan, an angiotensin-2 receptor blocker, was utilized to discover whether the ACE system was involved in the results discussed in Example 1.
as §4
When losartan was injected, the SBP of both groups decreased. At 6 hours, the SBP were essentially the same. […] Thus, HCA appears to decrease angiotensin-2 in rats and to lower elevated SBP. Although insulin regulation likely is a factor in the blood pressure modulating effect of HCA, this evidence argues that inhibition of ACE is also important. […]

[7] = treated rats; cited from earlier work
[8] = Earlier study of SBP with a KCaHCA salt, not described; type: in vivo; settings: 120 mg HCA per day
[9] = twice a day; diet consisting of 70% glucose and 1% fat; cited from earlier work
[10] = high dose (KMgHCA H) 84 mg HCA per day
[11] = intermediate dose (KMgHCA M) 28 mg HCA per day
[12] = gavaged twice daily, KHCA 38.4 mg HCA per day, KCaHCA 48 mg HCA per day

O=C([O-])CC(O)(C(=O)[O-])C(O)C(=O)[O-].[K+].[Mg+2] (centres unmarked) [KMgHCA, potassium-magnesium hydroxycitrate]
insulin, control versus treatment, Student's t test ([1]; KMgHCA H 84 mg HCA per day, p=0.058): at the margin of significance
average insulin concentrations compared to control [1]: lower
SBP from baseline [2]: decrease in SBP from baseline
body weight over three weeks [3]: trend for an increase
glucose appearance in bloodstream in glucose tolerance test [4]: significantly lesser rise
SBP compared to control at the end of eight weeks [5, 10]: significant decreases
lowering of SBP at the end of 8 weeks [5, 10]: over 10 mm Hg
SBP compared to control at the end of eight weeks [5, 11]: significant decreases
lowering of SBP at the end of 8 weeks [5, 11]: over 10 mm Hg
SBP at the end of 8 weeks ([5]; low dose (KMgHCA L) 14 mg HCA per day): essentially did nothing
decrease in SBP after losartan injection ([6]; 100 mg HCA per day, at 6 hours, versus control): −21.7±7.0

CCCCc1nc(Cl)c(CO)n1Cc1ccc(-c2ccccc2-c2nn[nH]n2)cc1 [losartan, reference compound]
SBP after losartan injection ([6]; both groups (control and KMgHCA)): decreased

O=C(O)CC(O)(C(=O)O)C(O)C(=O)O (single isomer, unassigned; (-)) [(−)-hydroxycitrate, (−)-Hydroxycitric acid]
plasma levels of glucose, insulin, or free fatty acids relative to controls [7]: no significant differences

O=C([O-])CC(O)(C(=O)[O-])C(O)C(=O)[O-].[Ca+2].[K+] (centres unmarked) [KCaHCA, potassium-calcium hydroxycitrate]
SBP in earlier study [8]: decrease in SBP
average insulin concentrations compared to control [1]: did not show a trend toward lower circulating insulin
SBP compared to control at the end of eight weeks [5, 12]: significant decreases

O=C([O-])CC(O)(C(=O)[O-])C(O)C(=O)[O-].[K+].[K+].[K+] (centres unmarked) [KHCA, potassium hydroxycitrate]
insulin, control versus treatment, Student's t test ([1]; KHCA 38.4 mg HCA per day): showed significance
average insulin concentrations compared to control [1]: lower
SBP compared to control at the end of eight weeks [5, 12]: significant decreases

O=C([O-])CC(O)(C(=O)[O-])C(O)C(=O)[O-].[Na+].[Na+].[Na+] (centres unmarked) [trisodium hydroxycitrate]
lowest dose in rats shown to be efficacious in reducing weight gain [9]: 0.33 mmol/kg
